Data reported in patent US6762170B1, “2-(purin-9-yl)-tetrahydrofuran-3,4-diol derivatives” (SmithKlineBeecham Corporation, priority 1998, dated 2004).
Counter-ions that a name gives are not always drawn.

How the values were obtained:
Assay type in all cases: cell-based
Adenosine 1 receptor = target: T1, Adenosine 1 receptor (Homo sapiens, UniProt P30542); test: Agonist activity against adenosine 1 receptor subtype (CHO cells, forskolin-enhanced cAMP, SPAP reporter); settings: EC50 ratio to NECA; transfected CHO cells, forskolin-enhanced cAMP reflected by SPAP
T1 construct: expressed in transfected cells; host or cells: Chinese hamster ovary (CHO) cells, co-transfected with a CRE-SPAP reporter
T1 sequence (P30542 1-326): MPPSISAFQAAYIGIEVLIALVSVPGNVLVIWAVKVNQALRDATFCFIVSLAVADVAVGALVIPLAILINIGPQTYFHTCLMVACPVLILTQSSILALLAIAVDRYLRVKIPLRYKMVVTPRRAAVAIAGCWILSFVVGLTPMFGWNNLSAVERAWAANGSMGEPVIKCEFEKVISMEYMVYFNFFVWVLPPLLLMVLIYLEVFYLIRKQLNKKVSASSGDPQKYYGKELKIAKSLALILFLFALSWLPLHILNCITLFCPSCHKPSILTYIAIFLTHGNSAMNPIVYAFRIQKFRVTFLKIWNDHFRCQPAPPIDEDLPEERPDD
How it was run: (§1)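 CHO cells expressed the human receptor plus a cAMP response element–driven SPAP reporter. Agonism was measured as SPAP change from forskolin-enhanced cAMP for A1 and A3, and from basal cAMP for A2a. EC50 is expressed as a ratio to that of NECA.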

Adenosine 2a receptor = target: T2, Adenosine 2a receptor (Homo sapiens, UniProt P29274); test: Agonist activity against adenosine 2a receptor subtype (CHO cells, cAMP response element/SPAP reporter); settings: EC50 ratio to NECA; transfected CHO cells, basal cAMP reflected by SPAP
T2 construct: expressed in transfected cells; host or cells: Chinese hamster ovary (CHO) cells, co-transfected with a CRE-SPAP reporter
T2 sequence (P29274 whole entry): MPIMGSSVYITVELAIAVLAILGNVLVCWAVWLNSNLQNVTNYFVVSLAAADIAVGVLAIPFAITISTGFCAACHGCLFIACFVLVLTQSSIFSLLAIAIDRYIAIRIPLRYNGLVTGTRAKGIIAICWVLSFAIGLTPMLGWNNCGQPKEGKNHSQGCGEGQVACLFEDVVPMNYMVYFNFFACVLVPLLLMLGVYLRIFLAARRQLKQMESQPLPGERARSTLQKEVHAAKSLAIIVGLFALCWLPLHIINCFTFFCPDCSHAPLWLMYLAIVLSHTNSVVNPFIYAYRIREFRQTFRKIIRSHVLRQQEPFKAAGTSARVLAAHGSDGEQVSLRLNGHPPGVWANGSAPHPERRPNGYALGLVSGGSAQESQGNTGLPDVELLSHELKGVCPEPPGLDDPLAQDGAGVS
How it was run: as §1

Adenosine 3 receptor = target: T3, Adenosine 3 receptor (Homo sapiens, UniProt P0DMS8); test: Agonist activity against adenosine 3 receptor subtype (CHO cells, forskolin-enhanced cAMP, SPAP reporter); settings: EC50 ratio to NECA; transfected CHO cells, forskolin-enhanced cAMP reflected by SPAP
T3 construct: expressed in transfected cells; host or cells: Chinese hamster ovary (CHO) cells, co-transfected with a CRE-SPAP reporter
T3 sequence (P0DMS8 1-318): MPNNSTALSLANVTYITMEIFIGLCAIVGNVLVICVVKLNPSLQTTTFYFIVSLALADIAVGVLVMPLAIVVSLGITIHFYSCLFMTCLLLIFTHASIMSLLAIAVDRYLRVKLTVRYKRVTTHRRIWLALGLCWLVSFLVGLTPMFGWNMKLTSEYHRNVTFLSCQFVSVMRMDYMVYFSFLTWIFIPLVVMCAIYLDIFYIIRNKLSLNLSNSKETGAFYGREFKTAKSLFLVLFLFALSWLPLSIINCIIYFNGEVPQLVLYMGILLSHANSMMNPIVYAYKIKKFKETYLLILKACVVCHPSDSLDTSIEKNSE
How it was run: as §1

Row | SMILES | A1 (EC50 values as a ratio of that of NECA) (Adenosine 1 receptor) | A2a (EC50 values as a ratio of that of NECA) (Adenosine 2a receptor) | A3 (EC50 values as a ratio of that of NECA) (Adenosine 3 receptor)
1 | CCc1cc(C2OC(n3cnc4c(NCc5ccccc5)nc(NCCc5cn(C)cn5)nc43)C(O)C2O)on1 [Example 43, (2R,3R,4S,5S)-2-{6-Benzylamino-2-[2-(1-methyl-1H-imidazol-1-yl)-ethylamino]-purin-9-yl}-5-(3-ethyl-isoxazol-5-yl)-tetrahydro-furan-3,4-diol diformate] | 672.4 | 3.53 | >335
2 | CCc1cc(C2OC(n3cnc4c(NCc5ccccc5)nc(NCCN5CCCCC5)nc43)C(O)C2O)on1.O=CO.O=CO [Example 44, (2R,3R,4S,5S)-2-[6-Benzylamino-2-(2-piperidin-1-yl-ethylamino)-purin-9-yl]-5-(3-ethyl-isoxazol-5-yl)-tetrahydro-furan-3,4-diol diformate] | 725.4 | 10.3 | >221
3 | CCc1cc(C2OC(n3cnc4c(NC(CO)Cc5ccccc5)nc(NCCN5CCCCC5)nc43)C(O)C2O)on1 [Example 45, (2S,3S,4R,5R)-2-(3-Ethyl-isoxazol-5-yl)-5-[6-(1S-hydroxymethyl-2-phenyl-ethylamino)-2-(2-piperidin-1-yl-ethylamino)-purin-9-yl]-tetrahydro-furan-3,4-diol diformate] | 54.04 | 1.93 | >189
4 | CCc1cc([C@H]2O[C@@H](n3cnc4c(NC(CC)CC)nc(NC5CCCC5)nc43)[C@H](O)[C@@H]2O)on1.O=CO [Example 46, (2R,3R,4S,5S)-2-[2-(Cyclopentylamino)-6-(1-ethyl-propylamino)-purin-9-yl]-5-(3-ethyl-isoxazol-5-yl)-tetrahydro-furan-3,4-diol formate] | 148.72 | 20.06 | >518
5 | CCc1cc([C@H]2O[C@@H](n3cnc4c(NC(CC)CC)nc(NC5CCOCC5)nc43)[C@H](O)[C@@H]2O)on1.O=CO [Example 48, (2R,3R,4S,5S)-2-[2-(4-tetrahydropyranyl-amino)-6-(1-ethyl-propylamino)-purin-9-yl]-5-(3-ethyl-isoxazol-5-yl)-tetrahydro-furan-3,4-diol formate] | 177.71 | 11.48 | >363
6 | CCc1cc(C2OC(n3cnc4c(NC(CC)CC)nc(NC5CCN(Cc6ccccc6)C5)nc43)C(O)C2O)on1 [Example 49, (2R,3R,4S,5S)-2-[2-(1-Benzyl-pyrrolidin-3S-1-ylamino)-6-(1-ethyl-propylamino)purin-9-yl]-5-(3-ethyl-isoxazol-5-yl)-tetrahydro-furan-3,4-diol formate] | 28.28 | 7.79 | >350
7 | CCC(CC)Nc1nc(NCCc2cn(C)cn2)nc2c1ncn2C1OC(c2cc(C=NO)no2)C(O)C1O (stereo not drawn) [Example 50, 5-(5R-{6-Ethyl-propylamino)-2-[2(1-methyl-1H-imidazol-4-yl)-ethylamino]-purin-9-yl}-3S,4R-dihydroxy-tetrahydro-furan-2S-yl)-isoxazole-3-carbaldehyde oxime diformate] | >6188 | 7.26 | >113
8 | CCc1cc(C2OC(n3cnc4c(NC(CO)Cc5ccccc5)nc(NCCN5CCOCC5)nc43)C(O)C2O)on1 [Example 51, (2S,3S,4R,5R)-2-(3-Ethyl-isoxazol-5-yl)-5-[6-(1S-hydroxymethyl-2-phenyl-ethylamino)-2-(2-morpholin-4-yl-ethylamino)-purin-9-yl]-tetrahydro-furan-3,4-diol diformate] | 22.53 | 4.86 | >340
9 | CCc1cc(C2OC(n3cnc4c(NCc5ccccc5)nc(NCCc5ccccn5)nc43)C(O)C2O)on1.O=CO.O=CO [Example 52, (2S,3S,4R,5R)-2-(3-Ethyl-isoxazol-5-yl)-5-[6-benzylamino-2-(2-pyridin-2-yl-ethylamino)-purin-yl]-tetrahydro-furan-3,4-diol diformate] | 1359.98 | 21.63 | >340

Next, values leading:

Row | A1 (EC50 values as a ratio of that of NECA) (Adenosine 1 receptor) | A2a (EC50 values as a ratio of that of NECA) (Adenosine 2a receptor) | A3 (EC50 values as a ratio of that of NECA) (Adenosine 3 receptor) | SMILES
10 | 128.9 | 2.11 | >229 | CCc1cc([C@H]2O[C@@H](n3cnc4c(NC(CC)CC)nc(NCCNc5ccccn5)nc43)[C@H](O)[C@@H]2O)on1.O=CO.O=CO [Example 53, (2S,3S,4R,5R)-2-(3-Ethyl-isoxazol-5-yl)-5-{6-(1-ethyl-propylamino)-2-[2-(pyridin-2-ylamino)-ethylamino]-purin-9-yl}-tetrahydro-furan-3,4-diol diformate]
11 | 10.18 | 0.066 | >350 | CCC(CC)Nc1nc(NCCN2CCCCC2)nc2c1ncn2[C@@H]1O[C@H](c2cc(C(C)O)no2)[C@@H](O)[C@H]1O.O=CO.O=CO (stereo partly drawn) [Example 54, (2R,3R,4S,5S)-2-[6-(1-Ethyl-propylamino)-2-(2-piperidin-1-yl-ethylamino)-purin-9-yl]-5-[3-(1-hydroxy-ethyl)-isoxazol-5-yl]-tetrahydro-furan-3,4-diol diformate]
12 | 155.3 | 0.175 | >353 | CCC(CC)Nc1nc(NCCN2CCCCC2)nc2c1ncn2C1OC(c2cc(C)no2)C(O)C1O.O=CO.O=CO [Example 55, (2R,3R,4S,5S)-2-[6-(1-Ethyl-propylamino)-2-(2-piperidin-1-yl-ethylamino)-purin-9-yl]-5-(3-methyl-isoxazol-5-yl)-tetrahydro-furan-3,4-diol diformate]
13 | 101.31 | 5.19 | >525 | CCCc1cc(C2OC(n3cnc4c(NC(CC)CC)nc(NCCN5CCCCC5)nc43)C(O)C2O)on1.O=CO.O=CO [Example 56, (2R,3R,4S,5S)-2-[6-(1-Ethyl-propylamino)-2-(2-piperidin-yl-ethylamino)-purin-9-yl]-5-(3-propyl-isoxazol-5-yl)-tetrahydro-furan-3,4-diol diformate]
14 | 80.76 | 0.79 | >525 | CCC(CC)Nc1nc(NCCN2CCCCC2)nc2c1ncn2C1OC(c2cc(CO)no2)C(O)C1O.O=CO.O=CO [Example 57, (2R,3R,4S,5S)-2-[6-(1-Ethyl-propylamino)-2-(2-piperidin-1-yl-ethylamino)-purin-9-yl]-5-(3-hydroxymethyl-isoxazol-5-yl)-tetrahydro-furan-3,4-diol diformate]
15 | 812.2 | 0.244 | >525 | CCC(CC)Nc1nc(NCCc2cn(C)cn2)nc2c1ncn2[C@@H]1O[C@H](c2cc(C(C)O)no2)[C@@H](O)[C@H]1O.O=CO.O=CO (stereo partly drawn) [Example 58, (2R,3R,4S,5S)-2-{6-(1-Ethyl-propylamino)-2-[2-(1-methyl-1H-imidazol-4-yl)-ethylamino]-purin-9-yl}-5-[3-(1-hydroxy-ethyl)-isoxazol-5-yl]-tetrahydro-furan-3,4-diol diformate]
16 | 21.37 | 1.03 | >303 | CCc1cc(C2OC(n3cnc4c(NC(CO)Cc5ccccc5)nc(NCCNc5ccccn5)nc43)C(O)C2O)on1 [Example 62, (2S,3S,4R,5R)-2-(3-Ethyl-isoxazol-5-yl)-5-{6-(1S-hydroxymethyl-2-phenyl-ethylamino)-2-[2-(pyridin-2-ylamino)-ethylamino]-purin-9-yl}-tetrahydro-furan-3,4-diol diformate]
17 | 148.43 | 10.57 | >262 | CCc1cc(C2OC(n3cnc4c(NC(CO)Cc5ccccc5)nc(NCCN5CCCC5)nc43)C(O)C2O)on1 [Example 63, (2S,3S,4R,5R)-2-(3-Ethyl-isoxazol-5-yl)-5-[6-(1S-hydroxymethyl-2-phenyl-ethylamino)-2-(2-pyrrolidin-1-yl-ethylamino)-purin-9-yl]-tetrahydro-furan-3,4-diol diformate]
